Measurements from patent US20260097004A1, “PHARMACEUTICAL COMPOSITION FOR TREATING MAST CELL-MEDIATED INFLAMMATORY DISEASES” (priority 2022, published 2026).

How the values were obtained:
LAD2 mast cells = assay: β-hexosaminidase assay of mast cell degranulation stimulated by SP; assay type: cell-based; conditions: SP stimulating experiment, FIG. 1
Description: An experimental method using a β-hexosaminidase assay comprises the following steps: • 1. a PNAG/HEPES buffer/0.1% Triton-100/glycine solution was prepared at a normal temperature; • 2. LAD2 cell was taken out from an incubator at 37° C. and cell count was read, and then an appropriate amount of cell suspension was taken according to experimental cell requirements (estimated based on 5000-10000/well); • 3. the LAD2 cell suspension was centrifuged for 5 min on a centrifuge at 4° C. at […], and then supernatant was discarded; • 4. cells were evenly mixed in the solution after HEPES buffer was added; • 5. the cell suspension was transferred to a 96-well plate, with 80 ul per well; • 6. a to-be-tested drug Atovaquone was added to a corresponding position according to experiment design, the positions of a positive control SP (neuropeptide substance P), a negative control QWF (MRGPRX2 receptor antagonist) and a blank control were reserved, and each drug was administrated for three repetitions; • 7. the cells were co-incubated with the drug for 30 min; • 8. […]
Detection of m Absorbance
• 12. the degranulation percentage of mast cells was calculated.
According to a formula: degranulation percentage-2×absorbance of supernatant plate/(absorbance of supernatant plate+[…]absorbance of cell lysis plate)×100%

LAD2 cells = assay: Intracellular calcium ion flow experiment (calcium imaging, Fluo-3); assay type: cell-based; conditions: Atovaquone at different concentrations (0, 1, 10, 100 nM and 1 μM), incubation 30 min; FIG. 3
Description: (§1) An incubation buffer was composed of: 0.5 μl of Fluo-3, 2 μl of Pluronic F-127 and 997.5 μl of CIB (calcium imaging buffer: 125 mM NaCl, 3 mM KCl, 2.5 mM CaCl2, 0.6 mM MgCl2, 10 mM HEPES, 20 mM glucose, 1.2 mM NaHCO3 and 20 mM sucrose, and pH=7.4). Different concentrations (0, 1, 10, 100 nM and 1 μM) of Atovaquone were prepared in the incubation buffer, and an incubation buffer solution without Atovaquone was used as a negative control. LAD2 cells were washed twice with CIB, and then a desired incubation buffer solution was added. After incubation for 30 min, the cells were washed twice with CIB, and then inoculated into a 96-well plate for calcium imaging. For calcium imaging, the cells were magnified 200× and a photo was obtained per second under blue light. After a substance was injected, the cells were confirmed as being responsive if [Ca^2+] rose by at least 50%.

MrgA1 = target: T1, MrgA1 (Mus musculus, UniProt Q91WW5); assay: Calcium ion flow when substance P acts on MrgA1; assay type: cell-based; conditions: substance P 10 μM acted on MrgA1; cells with vs without Atovaquone; FIG. 2
T1 sequence (Q91WW5 1-304): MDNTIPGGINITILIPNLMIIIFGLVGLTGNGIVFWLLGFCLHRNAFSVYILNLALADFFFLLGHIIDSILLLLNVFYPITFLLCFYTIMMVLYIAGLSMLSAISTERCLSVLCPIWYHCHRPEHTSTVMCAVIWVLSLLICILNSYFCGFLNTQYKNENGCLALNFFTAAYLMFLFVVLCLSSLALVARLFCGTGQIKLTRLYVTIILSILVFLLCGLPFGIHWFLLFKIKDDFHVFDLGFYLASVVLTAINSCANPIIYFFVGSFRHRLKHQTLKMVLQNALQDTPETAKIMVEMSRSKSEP
Description: as §1
(§2) FIG. 2 is a dynamic observation graph showing a calcium ion flow change when a substance P acted on different receptors, i.e., a schematic representation of the substance P acting on MrgA1, MrgX2 and NKIR (5 nM acted on NKIR, 50 nM acted on MrgX2 and 10 μM acted on MrgA1). This image set was photographed every 5 s from left to right for 120 s. In each group of graphs, a column represented cells with Atovaquone, the next column represented cells without Atovaquone.

NKIR = NKIR (Homo sapiens, UniProt P25103); assay: Calcium ion flow when substance P acts on NKIR; assay type: cell-based; conditions: substance P 5 nM acted on NKIR; cells with vs without Atovaquone; FIG. 2
Sequence of NKIR (P25103 whole entry): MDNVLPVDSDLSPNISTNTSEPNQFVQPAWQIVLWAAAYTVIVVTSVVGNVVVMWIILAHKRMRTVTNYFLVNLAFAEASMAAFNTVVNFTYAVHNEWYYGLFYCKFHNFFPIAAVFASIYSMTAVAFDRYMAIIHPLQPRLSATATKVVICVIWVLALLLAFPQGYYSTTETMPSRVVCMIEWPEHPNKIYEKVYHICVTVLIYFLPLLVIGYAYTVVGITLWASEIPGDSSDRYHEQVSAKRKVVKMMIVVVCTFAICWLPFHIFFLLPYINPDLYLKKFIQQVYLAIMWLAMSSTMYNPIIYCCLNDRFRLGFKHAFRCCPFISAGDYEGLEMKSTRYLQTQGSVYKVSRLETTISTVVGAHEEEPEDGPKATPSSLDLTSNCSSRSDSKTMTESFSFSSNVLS
Description: as §1, §2

[1] = cited from earlier work

effect on MrgA1 mediated calcium ion flow (MrgA1): inferior to that on MrgX2
effect on NKIR mediated calcium ion flow (NKIR): inferior to that on MrgX2
Compound: O=C1C(O)=C([C@H]2CC[C@H](c3ccc(Cl)cc3)CC2)C(=O)c2ccccc21 [Atovaquone]
inhibition of LAD2 mast cell degranulation compared with QWF (LAD2 mast cells): far superior to QWF
degranulation of LAD2 mast cells (degranulation percentage) (LAD2 mast cells; cells co-incubated with drug 30 min, then SP 30 min): obviously improved
calcium ion flow (LAD2 cells): reduction in calcium ion flow
drug dependence ([1]; after long-term use): no significant drug dependence phenomenon
side effects ([1]; users in a population): low side effect characteristics
